In patent US20250195433A1, “Compositions Having Improved Bioavailability of Therapeutics and Uses Thereof” (TRx Biosciences Limited, priority 2022, published 2025):

Key:
[1] = Solubility of olaparib in glycerolipids with and without digestion enhancers; assay type: physicochemical; details: 55 mg in 1 g of only MAISINE CC, only GELUCIRE 43/01, or their admixture, 130° C., stirred at least 60 minutes
[2] = Miscibility / self-emulsification test modelling ICH dissolution testing; assay type: physicochemical; details: 1 g of 100% or 75% preparation in 1 L PBS with […] curcumin, 37° C., stirring 300 rpm 10 min, then 10 min without stirring
Experimental: To assess whether oleic acid could self-emulsify at the concentrations used in the disclosed pharmaceutical compositions, experiments was performed that were designed to model dissolution testing according to International Council for Harmonisation (ICH) guidelines. […] Miscibility experiments were performed using two concentrations of oleic acid nominally above the CMC concentration for this fatty acid. In one series of experiments, 1 g of 100% oleic acid was added to the dissolution media. The control compound was 1 g of 100% MAISINE™ CC. In a second series of experiments 1 g of 75% oleic acid (diluted with 250 mg of MAISINE™ CC) was added to the dissolution media. The control compound was 1 g of 75% MAISINE™ CC. The miscibility of oleic acid and MAISINE™ CC was assessed by observing the dissolution media for 10 minutes with constant stirring and then 10 minutes without stirring. Photographs were taken at time 0, 1, 2, 3, 4, 5 and 10 minutes during the stirring phase and 2, 4 and 10 minutes after stirring ceased.

Row | Compound | solubility of olaparib in glycerolipids without digestion enhancers [1] | miscibility in dissolution media [2]
1 | O=C(c1cc(Cc2n[nH]c(=O)c3ccccc23)ccc1F)N1CCN(C(=O)C2CC2)CC1 [olaparib] | remained insoluble | 
2 | CCCCCCCC/C=C\CCCCCCCC(=O)O [oleic acid] |  | not miscible
